Among the data in patent publication US9604961B2, “Histone demethylase inhibitors” (Celgene Quanticel Research, Inc., priority 2012, dated 2017) are IC50 values, retold here.

Common to all, as to assay type: biochemical
One assay addresses Jarid1A (Homo sapiens (Human), UniProt P29375). The assay can be described thus: Jarid1A in vitro enzyme inhibition assay (TR-FRET). An excerpt: The enzymatic assay of Jarid1A activity is based upon Time Resolved-Fluorescence Resonance Energy Transfer (TR-FRET) detection.
On the technique in general: Time-resolved FRET reads energy transfer from a long-lived donor to a nearby acceptor.

The target in a further assay is Jarid1B (Homo sapiens (Human), UniProt Q9UGL1). Briefly: Jarid1B in vitro enzyme inhibition assay (TR-FRET).
The target of the next assay is JMJD2C (Homo sapiens (Human), UniProt Q9H3R0). The assay can be described thus: JMJD2C in vitro enzyme inhibition assay (TR-FRET).
Chain of JMJD2C (Q9H3R0 2-372): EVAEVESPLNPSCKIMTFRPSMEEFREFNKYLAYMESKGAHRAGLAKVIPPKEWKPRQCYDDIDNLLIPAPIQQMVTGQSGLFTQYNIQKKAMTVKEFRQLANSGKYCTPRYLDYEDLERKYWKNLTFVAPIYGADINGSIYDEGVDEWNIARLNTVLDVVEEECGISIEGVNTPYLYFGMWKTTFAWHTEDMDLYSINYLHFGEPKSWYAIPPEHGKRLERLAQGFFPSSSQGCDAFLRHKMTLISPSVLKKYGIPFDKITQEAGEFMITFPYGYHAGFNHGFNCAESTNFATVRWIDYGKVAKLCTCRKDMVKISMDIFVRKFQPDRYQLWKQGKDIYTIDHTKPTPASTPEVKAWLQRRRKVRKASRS

Chain of Jarid1A (P29375 1-1090): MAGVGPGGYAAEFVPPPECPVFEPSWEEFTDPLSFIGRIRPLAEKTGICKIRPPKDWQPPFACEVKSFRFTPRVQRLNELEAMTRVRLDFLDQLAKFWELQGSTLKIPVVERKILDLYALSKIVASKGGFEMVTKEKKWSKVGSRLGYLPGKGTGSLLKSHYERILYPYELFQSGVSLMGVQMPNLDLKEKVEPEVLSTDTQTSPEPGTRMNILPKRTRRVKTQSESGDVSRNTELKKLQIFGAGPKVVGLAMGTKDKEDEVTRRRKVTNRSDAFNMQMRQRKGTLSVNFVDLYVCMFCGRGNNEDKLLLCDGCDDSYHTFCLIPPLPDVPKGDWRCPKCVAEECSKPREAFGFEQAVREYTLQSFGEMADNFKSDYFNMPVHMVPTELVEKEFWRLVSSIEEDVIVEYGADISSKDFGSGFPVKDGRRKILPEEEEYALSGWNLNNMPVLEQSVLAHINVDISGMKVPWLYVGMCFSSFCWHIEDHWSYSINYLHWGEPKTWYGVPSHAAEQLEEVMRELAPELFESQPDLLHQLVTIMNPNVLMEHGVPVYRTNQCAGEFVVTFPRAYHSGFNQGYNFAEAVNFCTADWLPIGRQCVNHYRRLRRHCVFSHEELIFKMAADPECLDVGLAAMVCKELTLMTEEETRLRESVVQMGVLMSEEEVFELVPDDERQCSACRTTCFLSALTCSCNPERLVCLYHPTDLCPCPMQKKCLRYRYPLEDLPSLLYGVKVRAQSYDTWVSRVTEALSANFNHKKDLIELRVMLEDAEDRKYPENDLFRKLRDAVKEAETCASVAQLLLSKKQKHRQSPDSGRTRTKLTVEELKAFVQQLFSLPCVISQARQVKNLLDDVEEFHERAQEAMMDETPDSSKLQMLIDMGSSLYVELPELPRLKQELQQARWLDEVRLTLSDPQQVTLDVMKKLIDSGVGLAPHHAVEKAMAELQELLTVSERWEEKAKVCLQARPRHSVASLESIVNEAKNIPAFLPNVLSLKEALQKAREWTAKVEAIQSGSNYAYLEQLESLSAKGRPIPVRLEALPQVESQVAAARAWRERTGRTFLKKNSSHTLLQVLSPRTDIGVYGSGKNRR
Chain of Jarid1B (Q9UGL1 2-751): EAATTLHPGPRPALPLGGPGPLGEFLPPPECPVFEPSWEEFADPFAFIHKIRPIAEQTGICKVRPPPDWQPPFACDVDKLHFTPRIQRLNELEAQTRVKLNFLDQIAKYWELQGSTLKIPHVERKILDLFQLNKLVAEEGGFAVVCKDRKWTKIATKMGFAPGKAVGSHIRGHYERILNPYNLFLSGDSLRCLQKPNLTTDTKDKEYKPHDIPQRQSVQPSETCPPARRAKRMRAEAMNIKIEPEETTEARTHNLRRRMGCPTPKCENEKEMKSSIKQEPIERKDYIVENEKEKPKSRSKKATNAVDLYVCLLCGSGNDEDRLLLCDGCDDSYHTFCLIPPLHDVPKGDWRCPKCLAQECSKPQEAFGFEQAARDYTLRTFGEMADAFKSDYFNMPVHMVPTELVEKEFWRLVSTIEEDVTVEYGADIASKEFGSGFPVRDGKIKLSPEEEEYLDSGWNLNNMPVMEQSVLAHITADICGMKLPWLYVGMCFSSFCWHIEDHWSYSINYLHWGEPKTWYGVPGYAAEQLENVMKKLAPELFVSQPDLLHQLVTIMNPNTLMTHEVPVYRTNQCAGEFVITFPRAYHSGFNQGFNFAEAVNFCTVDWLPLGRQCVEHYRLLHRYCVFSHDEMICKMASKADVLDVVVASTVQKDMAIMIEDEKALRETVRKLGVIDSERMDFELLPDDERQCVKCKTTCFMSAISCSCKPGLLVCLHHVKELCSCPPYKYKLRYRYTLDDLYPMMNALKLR
Method for JMJD2C: Baculovirus expressed JMJD2C (GenBank Accession #BC143571, AA 2-372) was purchased from BPS Bioscience (Cat#50105).
The ability of test compounds to inhibit the activity of JMJD2C was determined in 384-well plate format under the following reaction conditions: 0.3 nM JMJD2C, 300 nM H3K9me3-biotin labeled peptide (Anaspec cat #64360), 2 μM alpha-ketoglutaric acid in assay buffer of 50 mM HEPES, pH7.3, 0.005% Brij35, 0.5 mM TCEP, 0.2 mg/ml BSA, 50 μM sodium L-ascorbate, and 2 μM ammonium iron(II) sulfate. Reaction product was determined quantitatively by TR-FRET after the addition of detection reagent Phycolink Streptavidin-allophycocyanin (Prozyme) and Europium-anti-di-methylated histone H3 lysine 9 (H3K9me2) antibody (PerkinElmer) in the presence of 5 mM EDTA in LANCE detection buffer (PerkinElmer) at a final concentration of 50 nM and 1 nM, respectively.
The assay reaction was initiated by the following: 2 μl of the mixture of 900 nM H3K9me3-biotin labeled peptide and 6 μM alpha-ketoglutaric acid with 2 μl of 11-point serial diluted inhibitor in 3% DMSO were added to each well of the plate, followed by the addition of 2 μl of 0.9 nM JMJD2C to initiate the reaction. The reaction mixture was incubated at room temperature for 30 minutes, and terminated by the addition of 6 μl of 5 mM EDTA in LANCE detection buffer containing 100 nM Phycolink Streptavidin-allophycocyanin and 2 nM Europium-anti-H3K9me2 antibody. Plates were read by EnVisionMultilabel Reader in TR-FRET mode (excitation at 320 nm, emission at 615 nm and 665 nm) after 1 hour incubation at room temperature. A ratio was calculated (665/615) for each well and fitted to determine inhibition constant (IC50).

By IC50 is commonly meant the concentration that inhibits the measured activity by half. Low values mean greater potency, high ones weaker potency. For `O=C(O)c1ccnc(-n2nccc2OCC2CCC(F)(F)CC2)c1` [Example 71, 2-{5-[(4,4-difluorocyclohexyl)methoxy]-1H-pyrazol-1-yl}pyridine-4-carboxylic acid], the IC50 is less than 100 nM on Jarid1A, less than 100 nM on Jarid1B and 100 to 1000 nM against JMJD2C.
As to `O=C(O)c1ccnc(-n2nccc2OCc2cccc(O)c2)c1` [Example 73, 2-{5-[(3-hydroxybenzyl)oxy]-1H-pyrazol-1-yl}pyridine-4-carboxylic acid], the IC50 against Jarid1A, on Jarid1B and at JMJD2C was less than 100 nM in each case.
Take `O=C(O)c1ccnc(-n2nccc2OCc2ccc(Cl)cc2F)c1` [Example 75, 2-{5-[(4-chloro-2-fluorobenzyl)oxy]-1H-pyrazol-1-yl}pyridine-4-carboxylic acid]: the IC50 at Jarid1A, against Jarid1B and at JMJD2C was less than 100 nM throughout.
For the compound `O=C(O)c1ccnc(-n2nccc2OCc2ccc(F)c(Cl)c2)c1` [Example 76, 2-{5-[(3-chloro-4-fluorobenzyl)oxy]-1H-pyrazol-1-yl}pyridine-4-carboxylic acid], the IC50 against Jarid1A, on Jarid1B and against JMJD2C was less than 100 nM in each case.
For the compound `O=C(O)c1ccnc(-n2nccc2OCc2ccc(C3CC3)cc2)c1` [Example 77, 2-{5-[(4-cyclopropylbenzyl)oxy]-1H-pyrazol-1-yl}pyridine-4-carboxylic acid], the IC50 against Jarid1A is less than 100 nM; at Jarid1B, less than 100 nM; at JMJD2C, 100 to 1000 nM.
Take `CC(Oc1ccnn1-c1cc(C(=O)O)ccn1)c1ccc(F)cc1` (stereo not drawn) [Example 82, 2-[5-[1-(4-fluorophenyl)ethoxy]pyrazol-1-yl]pyridine-4-carboxylic acid]: the IC50 is less than 100 nM against Jarid1A, less than 100 nM at Jarid1B and 100 to 1000 nM at JMJD2C.
For `O=C(O)c1ccnc(-n2nccc2OCC2CC(F)(F)C2)c1` [Example 83, 2-[5-[(3,3-difluorocyclobutyl)methoxy]pyrazol-1-yl]pyridine-4-carboxylic acid], the IC50 against Jarid1A, against Jarid1B and against JMJD2C was less than 100 nM each time.
Regarding `Cc1cnn(-c2cc(C(=O)O)ccn2)c1OCc1ccc(F)cc1` [Example 84, 2-[5-[(4-fluorophenyl)methoxy]-4-methylpyrazol-1-yl]pyridine-4-carboxylic acid], the figures for the IC50 against Jarid1A, against Jarid1B and on JMJD2C were less than 100 nM, less than 100 nM and 100 to 1000 nM, respectively.
For the compound `CCc1cnn(-c2cc(C(=O)O)ccn2)c1OCc1ccc(F)cc1` [Example 85, 2-[4-ethyl-5-[(4-fluorophenyl)methoxy]pyrazol-1-yl]pyridine-4-carboxylic acid], the IC50 was less than 100 nM on Jarid1A, less than 100 nM on Jarid1B and 100 to 1000 nM against JMJD2C.
Regarding `O=C(O)c1ccnc(-n2nccc2OCc2ccc(F)cc2F)c1` [Example 86, 2-[5-[(2,4-difluorophenyl)methoxy]pyrazol-1-yl]pyridine-4-carboxylic acid], the results for the IC50 on Jarid1A, at Jarid1B and at JMJD2C were less than 100 nM, less than 100 nM and 100 to 1000 nM, respectively.
Regarding `O=C(O)c1ccnc(-n2nccc2OCc2ccc(Cl)cc2Cl)c1` [Example 88, 2-[5-[(2,4-dichlorophenyl)methoxy]pyrazol-1-yl]pyridine-4-carboxylic acid], the values for the IC50 on Jarid1A, against Jarid1B and against JMJD2C were less than 100 nM, less than 100 nM and 100 to 1000 nM, respectively.
On to `COc1cc(Cl)ccc1COc1ccnn1-c1cc(C(=O)O)ccn1` [Example 90, 2-[5-[(4-chloro-2-methoxyphenyl)methoxy]pyrazol-1-yl]pyridine-4-carboxylic acid], for which the IC50 against Jarid1A, at Jarid1B and on JMJD2C was less than 100 nM throughout.
Regarding `O=C(O)c1ccnc(-n2nccc2OCc2ccc(Cl)c(C(F)(F)F)c2)c1` [Example 91, 2-[5-[[4-chloro-3-(trifluoromethyl)phenyl]methoxy]pyrazol-1-yl]pyridine-4-carboxylic acid], the IC50 on Jarid1A was less than 100 nM; against Jarid1B it was less than 100 nM; against JMJD2C, 100 to 1000 nM.
For `Cc1ccc(COc2ccnn2-c2cc(C(=O)O)ccn2)cc1F` [Example 93, 2-[5-[(3-fluoro-4-methylphenyl)methoxy]pyrazol-1-yl]pyridine-4-carboxylic acid], the IC50 against Jarid1A, against Jarid1B and against JMJD2C was less than 100 nM in each case.
On to `Cc1ccc(COc2ccnn2-c2cc(C(=O)O)ccn2)c(F)c1F` [Example 94, 2-[5-[(2,3-difluoro-4-methylphenyl)methoxy]pyrazol-1-yl]pyridine-4-carboxylic acid], for which the 50% inhibitory concentration (IC50) on Jarid1A, on Jarid1B and against JMJD2C was less than 100 nM throughout.
As to `CCc1ccc(COc2ccnn2-c2cc(C(=O)O)ccn2)cc1Cl` [Example 95, 2-[5-[(3-chloro-4-ethylphenyl)methoxy]pyrazol-1-yl]pyridine-4-carboxylic acid], the IC50 is less than 100 nM at Jarid1A, less than 100 nM against Jarid1B and 100 to 1000 nM against JMJD2C.
Regarding `CCc1ccc(COc2ccnn2-c2cc(C(=O)O)ccn2)cc1F` [Example 96, 2-[5-[(4-ethyl-3-fluorophenyl)methoxy]pyrazol-1-yl]pyridine-4-carboxylic acid], the half-inhibitory concentration (IC50) is less than 100 nM on Jarid1A, less than 100 nM at Jarid1B and 100 to 1000 nM against JMJD2C.
As to `N#Cc1cccc(COc2ccnn2-c2cc(C(=O)O)ccn2)c1` [Example 97, 2-[5-[(3-cyanophenyl)methoxy]pyrazol-1-yl]pyridine-4-carboxylic acid], the IC50 against Jarid1A, at Jarid1B and against JMJD2C was less than 100 nM each time.
Regarding `O=C(O)c1ccnc(-n2ncc(CCO)c2OCc2ccc(F)cc2)c1` [Example 109, 2-[5-[(4-fluorophenyl)methoxy]-4-(2-hydroxyethyl)pyrazol-1-yl]pyridine-4-carboxylic acid], the IC50 against Jarid1A was less than 100 nM; on Jarid1B it was less than 100 nM; against JMJD2C, 1000 to 10000 nM.
On to `CN(C)CCc1cnn(-c2cc(C(=O)O)ccn2)c1OCc1ccc(F)cc1` [Example 110, 2-[4-[2-(dimethylamino)ethyl]-5-[(4-fluorophenyl)methoxy]pyrazol-1-yl]pyridine-4-carboxylic acid], for which the IC50 at Jarid1A is less than 100 nM; against Jarid1B, less than 100 nM; against JMJD2C it was 100 to 1000 nM.
As for `CC(C)Oc1cc(Cl)ccc1COc1ccnn1-c1cc(C(=O)O)ccn1` [Example 113, 2-[5-[(4-chloro-2-propan-2-yloxyphenyl)methoxy]pyrazol-1-yl]pyridine-4-carboxylic acid], the results for the IC50 on Jarid1A, on Jarid1B and at JMJD2C were 100 to 1000 nM, 100 to 1000 nM and 1000 to 10000 nM, respectively.
`CCC(C)Oc1cc(Cl)ccc1COc1ccnn1-c1cc(C(=O)O)ccn1` (stereo not drawn) [Example 114, 2-[5-[(2-butan-2-yloxy-4-chlorophenyl)methoxy]pyrazol-1-yl]pyridine-4-carboxylic acid]: the IC50 is 100 to 1000 nM against Jarid1A, 100 to 1000 nM on Jarid1B and 1000 to 10000 nM on JMJD2C.
For the compound `COCCOc1cc(Cl)ccc1COc1ccnn1-c1cc(C(=O)O)ccn1` [Example 116, 2-[5-[[4-chloro-2-(2-methoxyethoxy)phenyl]methoxy]pyrazol-1-yl]pyridine-4-carboxylic acid], the IC50 is less than 100 nM against Jarid1A, less than 100 nM on Jarid1B and 100 to 1000 nM against JMJD2C.
As to `O=C(O)c1ccnc(-n2nccc2OCc2ccc(F)cc2/C=C/c2ccc(F)cc2)c1` [Example 119, 2-[5-[[4-fluoro-2-[(E)-2-(4-fluorophenyl)ethenyl]phenyl]methoxy]pyrazol-1-yl]pyridine-4-carboxylic acid], the results for the IC50 at Jarid1A, at Jarid1B and against JMJD2C were 100 to 1000 nM, 100 to 1000 nM and 1000 to 10000 nM, respectively.
With `O=C(O)c1ccnc(-n2nccc2OCc2ccc(Cl)cc2/C=C/c2ccc(F)cc2)c1` [Example 120, 2-[5-[[4-chloro-2-[(E)-2-(4-fluorophenyl)ethenyl]phenyl]methoxy]pyrazol-1-yl]pyridine-4-carboxylic acid], the IC50 at Jarid1A lay within 100 to 1000 nM; at Jarid1B it was 100 to 1000 nM; against JMJD2C, 1000 to 10000 nM.
In the case of `O=C(O)c1ccnc(-n2nccc2OCc2ccc(F)cc2CCc2ccc(F)cc2)c1` [Example 121, 2-[5-[[4-fluoro-2-[2-(4-fluorophenyl)ethyl]phenyl]methoxy]pyrazol-1-yl]pyridine-4-carboxylic acid], the results for the IC50 on Jarid1A, on Jarid1B and against JMJD2C were 100 to 1000 nM, 100 to 1000 nM and 1000 to 10000 nM, respectively.
For `O=C(O)c1ccnc(-n2nccc2OCc2ccc(Cl)cc2CCc2ccc(F)cc2)c1` [Example 122, 2-[5-[[4-chloro-2-[2-(4-fluorophenyl)ethyl]phenyl]methoxy]pyrazol-1-yl]pyridine-4-carboxylic acid], the IC50 against Jarid1A lay within 100 to 1000 nM; against Jarid1B it was 100 to 1000 nM; against JMJD2C, 1000 to 10000 nM.
With `O=C(O)c1ccnc(-n2nccc2OCc2cccc3c2OCC3)c1` [Example 123, 2-[5-(2,3-dihydro-1-benzofuran-7-ylmethoxy)pyrazol-1-yl]pyridine-4-carboxylic acid], the IC50 on Jarid1A was less than 100 nM; against Jarid1B, less than 100 nM; against JMJD2C, 100 to 1000 nM.
Take `CCc1cc(C#N)ccc1COc1ccnn1-c1cc(C(=O)O)ccn1` [Example 126, 2-[5-[(4-cyano-2-ethylphenyl)methoxy]pyrazol-1-yl]pyridine-4-carboxylic acid]: the IC50 against Jarid1A was less than 100 nM; against Jarid1B, less than 100 nM; against JMJD2C, 100 to 1000 nM.
In the case of `Cc1cc(F)ccc1COc1ccnn1-c1cc(C(=O)O)ccn1` [Example 128, 2-[5-[(4-fluoro-2-methylphenyl)methoxy]pyrazol-1-yl]pyridine-4-carboxylic acid], the IC50 was less than 100 nM on Jarid1A, less than 100 nM against Jarid1B and 100 to 1000 nM against JMJD2C.
Turning to `CCc1cc(F)ccc1COc1ccnn1-c1cc(C(=O)O)ccn1` [Example 129, 2-[5-[(2-ethyl-4-fluorophenyl)methoxy]pyrazol-1-yl]pyridine-4-carboxylic acid], the IC50 on Jarid1A was less than 100 nM; against Jarid1B, less than 100 nM; against JMJD2C, 100 to 1000 nM.
